Reference: patent US20260092061A1, “COMPOUNDS FOR TARGETED PROTEIN DEGRADATION” (Amphista Therapeutics Limited, priority 2022, published 2026)

Columns and labels:
[1] = target: T1, BRD9 (Homo sapiens, UniProt Q9H8M2); assay: BRD9 degradation, HiBiT-BRD9 KI HEK293 (LgBiT) cells, NanoGlo Lytic Endpoint assay (Assay Protocol 1); assay type: cell-based; conditions: BRD9 degradation; for Dmax / Dmax at 1 µM: HEK293; for Dmax at 1 µM: 1 μM compound at 6 h of treatment, read-out: Assay 1 Dmax
T1 sequence (Q9H8M2 1-597): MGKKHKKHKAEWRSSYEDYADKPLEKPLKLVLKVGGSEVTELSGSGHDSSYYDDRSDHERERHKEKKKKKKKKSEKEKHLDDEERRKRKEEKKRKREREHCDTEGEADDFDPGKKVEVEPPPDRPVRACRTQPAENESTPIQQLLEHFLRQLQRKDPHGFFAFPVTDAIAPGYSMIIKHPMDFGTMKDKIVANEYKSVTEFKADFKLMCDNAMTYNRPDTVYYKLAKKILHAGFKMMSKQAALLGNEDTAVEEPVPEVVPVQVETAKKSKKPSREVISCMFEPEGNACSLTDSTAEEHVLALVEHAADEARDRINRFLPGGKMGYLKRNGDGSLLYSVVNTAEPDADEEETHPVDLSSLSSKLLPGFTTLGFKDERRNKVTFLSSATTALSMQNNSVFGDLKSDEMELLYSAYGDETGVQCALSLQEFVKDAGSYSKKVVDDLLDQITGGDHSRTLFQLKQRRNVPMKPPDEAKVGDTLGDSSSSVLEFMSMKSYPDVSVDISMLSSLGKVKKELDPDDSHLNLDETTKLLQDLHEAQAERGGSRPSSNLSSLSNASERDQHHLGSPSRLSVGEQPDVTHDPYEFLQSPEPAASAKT
Procedure, shortened: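 HiBiT-tagged BRD9 knock-in HEK293 (LgBiT) cells exposed to compounds for 6 h at 37 °C, 5% CO2. Residual BRD9 measured by HiBiT lytic luminescence. % BRD9 remaining normalised to DMSO-treated cells (high) and no-cell wells (low).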

[2] = target: T1, BRD9; assay: Degradation of BRD9 (IF), immunofluorescence in MV4-11 cells, 24 hours (Assay Protocol 2); assay type: cell-based; set-up: A suspension of MV4-11 cells (ATCC CRL-9591) was prepared; host or cells: MV4-11
Procedure, shortened: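 MV4-11 cells treated with compound 24 h at 37° C., then fixed, permeabilised and immunostained for BRD9 (anti-BRD9 E4Q3F, Alexa 647 secondary, Hoechst counterstain). High-content imaging quantified nuclear BRD9 signal; % BRD9 remaining normalised to DMSO and 100 nM CFT-8634 controls.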

[3] = Table 4, determined according to Assay Protocol 1, read-out: Dmax^1
[4] = Table 4, determined according to Assay Protocol 1, read-out: DC50^1
[5] = MV4-11, Table 4, BRD9 degradation, determined according to Assay Protocol 2, read-out: Dmax^2
[6] = Table 4, BRD9 degradation, determined according to Assay Protocol 2, read-out: DC50^2
[7] = Assay protocol 1, read-out: DC50
[8] = Assay protocol 1, read-out: Dmax
[9] = MV4-11, Assay protocol 2, BRD9 degradation, read-out: Dmax
[10] = Assay protocol 2, BRD9 degradation, read-out: DC50
[11] = Table 2, Assay Protocol 1, 6 h of treatment, read-out: Assay 1 DC50
[12] = MV4-11, 24 h, Table 2, BRD9 degradation (IF), Assay Protocol 2, MV4-11 cells, read-out: Assay 2 DCmax
[13] = Table 2, BRD9 degradation (IF), Assay Protocol 2, MV4-11 cells, read-out: Assay 2 DC50

Row | SMILES | DC50 [1, 7] | Dmax [1, 8] | Dmax [2, 9] | DC50 [2, 10] | Dmax at 1 µM ([1]; Table 2, Assay Protocol 1) | DC50 [1, 11] | Dmax [2, 12] | also measured
1 | COc1cc(-c2cn(C)c(=O)c(C)c2C)cc(OC)c1CN1CCN(C(=O)[C@@H]2CN(C(=O)/C(C#N)=C/C(C)(C)C)C[C@H]2C2CCCCC2)CC1 [Compound B210] |  |  |  |  |  |  |  | Dmax [1, 3]: 50 to 70%; DC50 [1, 4]: 25 to 200 nM; Dmax [2, 5]: 50 to 70%; DC50 [2, 6]: 25 to 200 nM
2 | COc1cc(-c2cn(C)c(=O)c(C)c2C)cc(OC)c1CN1CCN(C(=O)C2CCCN(C(=O)/C(C#N)=C/C(C)(C)C)C2)CC1 (stereo not shown) [Compound B206] |  |  |  |  |  |  |  | Dmax [1, 3]: > 70%; DC50 [1, 4]: 25 to 200 nM; Dmax [2, 5]: 50 to 70%; DC50 [2, 6]: 25 to 200 nM
3 | COc1cc(-c2cn(C)c(=O)c3cnccc23)cc(OC)c1CN1CCC(N(C)c2cccc3c2CCN(C(=O)/C(C#N)=C/C(C)(C)C)C3C)CC1 (stereo not shown) [Compound A30] |  |  |  |  | 40 to 70% | 1.25 to 10 nM | < 50% | 
4 | COc1cc(-c2cn(C)c(=O)c(C)c2C)cc(OC)c1CN1CCCN(Cc2cccc3c2CCN(C(=O)/C(C#N)=C/C2(F)CC2)C3C)CC1 (single isomer, unassigned) [Compound A69, (E/Z)-2-(5-((4-(2,6-dimethoxy-4-(1,4,5-trimethyl-6-oxo-1,6-dihydropyridin-3-yl)benzyl)-1,4-diazepan-1-yl)methyl)-1-methyl-1,2,3,4-tetrahydroisoquinoline-2-carbonyl)-3-(1-fluorocyclopropyl)acrylonitrile] |  |  |  |  | > 75% | 1.25 to 10 nM | 40 to 70% | DC50 [2, 13]: 25 to 300 nM
5 | COc1cc(-c2cn(C)c(=O)c3cnccc23)cc(OC)c1CN1CCN(Cc2cccc3c2CCN(C(=O)/C(C#N)=C/c2nccs2)[C@@H]3C)CC1 (single isomer, unassigned) [Compound A14, (E/Z)-2-(5-((4-(2,6-dimethoxy-4-(2-methyl-1-oxo-1,2-dihydro-2,7-naphthyridin-4-yl)benzyl)piperazin-1-yl)methyl)-1-methyl-1,2,3,4-tetrahydroisoquinoline-2-carbonyl)-3-(thiazol-2-yl)acrylonitrile] |  |  |  |  | 40 to 70% | < 1.25 nM | 40 to 70% | DC50 [2, 13]: < 1.25 nM
6 | COc1cc(-c2cn(C)c(=O)c(C)c2C)cc(OC)c1CN1CC2CC1CN2C(=O)/C(C#N)=C/c1cccc(C(F)(F)F)n1 (mixture of isomers) [BRD9x, (E/Z)-2-(5-(2,6-dimethoxy-4-(1,4,5-trimethyl-6-oxo-1,6-dihydropyridin-3-yl)benzyl)-2,5-diazabicyclo[2.2.1]heptane-2-carbonyl)-3-(6-(trifluoromethyl)pyridin-2-yl)acrylonitrile] |  |  |  |  |  |  |  | DC50 [1, 4]: < 25 nM; Dmax [2, 5]: > 70%; DC50 [2, 6]: < 25 nM
7 | COc1cc(-c2cn(C)c(=O)c3cnccc23)cc(OC)c1CN1CCN(Cc2cccc3c2CCN(C(=O)/C(C#N)=C/c2nccs2)[C@H]3C)CC1 (single isomer, unassigned) [Compound A15] |  |  |  |  | 40 to 70% | 1.25 to 10 nM | 40 to 70% | DC50 [2, 13]: < 1.25 nM
8 | COc1cc(-c2cn(C)c(=O)c3cnccc23)cc(OC)c1CN1C2CCC1CN(Cc1cccc3c1CCN(C(=O)/C(C#N)=C/C(C)(C)C)C3C)C2 (stereo not shown) [Compound A49] |  |  |  |  | 40 to 70% | 1.25 to 10 nM | 40 to 70% | DC50 [2, 13]: < 1.25 nM
9 | COc1cc(-c2cn(C)c(=O)c(C)c2C)cc(OC)c1CN1CCN(C(=O)[C@@H]2CN(C(=O)/C(C#N)=C/c3ccc(F)cc3)C[C@H]2C2CCCCC2)CC1 [Compound B211] |  |  |  |  |  |  |  | Dmax [1, 3]: > 70%; DC50 [1, 4]: > 200 nM; Dmax [2, 5]: 50 to 70%; DC50 [2, 6]: > 200 nM

Further lines, with some results ahead:

Row | DC50 [1, 7] | Dmax [1, 8] | Dmax [2, 9] | DC50 [2, 10] | Dmax at 1 µM ([1]; Table 2, Assay Protocol 1) | DC50 [1, 11] | Dmax [2, 12] | SMILES | also measured
10 | 1.25 to 10 nM | 40 to 70% | 40 to 70% |  |  |  |  | COc1cc(-c2cn(C)c(=O)c(C)c2C)cc(OC)c1CN1CCN(Cc2cccc3c2CCN(C(=O)/C(C#N)=C/c2cc(C)ccn2)C3C)CC1 (mixture of isomers) [Compound B19, (E/Z)-2-(5-((4-(2,6-dimethoxy-4-(1,4,5-trimethyl-6-oxo-1,6-dihydropyridin-3-yl)benzyl)piperazin-1-yl)methyl)-1-methyl-1,2,3,4-tetrahydroisoquinoline-2-carbonyl)-3-(4-methylpyridin-2-yl)acrylonitrile] | 
11 | 25 to 1000 nM | 40 to 70% | > 75% | 1.25 to 10 nM |  |  |  | CCCC(c1ccc(C(=O)N(C)CCCCCCCCC(=O)N2CCN(Cc3c(OC)cc(-c4cn(C)c(=O)c(C)c4C)cc3OC)CC2)cc1)N(C)C(=O)/C(C#N)=C/c1nccs1 (mixture of isomers) [Compound B183, (E/Z)-4-(1-(2-cyano-N-methyl-3-(thiazol-2-yl)acrylamido)butyl)-N-(9-(4-(2,6-dimethoxy-4-(1,4,5-trimethyl-6-oxo-1,6-dihydropyridin-3-yl)benzyl)piperazin-1-yl)-9-oxononyl)-N-methylbenzamide] | 
12 | < 1.25 nM | 70 to 75% | 40 to 70% | 25 to 1000 nM |  |  |  | COc1ccnc(/C=C(\C#N)C(=O)N2CCc3c(CN4CCN(Cc5c(OC)cc(-c6cn(C)c(=O)c(C)c6C)cc5OC)CC4)cccc3C2C)c1 (mixture of isomers) [Compound B52, (E/Z)-2-(5-((4-(2,6-dimethoxy-4-(1,4,5-trimethyl-6-oxo-1,6-dihydropyridin-3-yl)benzyl)piperazin-1-yl)methyl)-1-methyl-1,2,3,4-tetrahydroisoquinoline-2-carbonyl)-3-(4-methoxypyridin-2-yl)acrylonitrile] | 
13 | 25 to 1000 nM | 40 to 70% | 40 to 70% | 1.25 to 10 nM |  |  |  | CCCC(c1ccc(C(=O)N(C)CCCCCCC(=O)N2CCN(Cc3c(OC)cc(-c4cn(C)c(=O)c(C)c4C)cc3OC)CC2)cc1)N(C)C(=O)/C(C#N)=C/c1nccs1 (mixture of isomers) [Compound B182, (E/Z)-4-(1-(2-cyano-N-methyl-3-(thiazol-2-yl)acrylamido)butyl)-N-(7-(4-(2,6-dimethoxy-4-(1,4,5-trimethyl-6-oxo-1,6-dihydropyridin-3-yl)benzyl)piperazin-1-yl)-7-oxoheptyl)-N-methylbenzamide] | 
14 | 1.25 to 10 nM | > 75% | 70 to 75% | 1.25 to 10 nM |  |  |  | COc1cc(-c2cn(C)c(=O)c(C)c2C)cc(OC)c1CN1CCCN(Cc2cccc3c2CCN(C(=O)/C(C#N)=C/c2cccc(Br)n2)C3C)CC1 (mixture of isomers) [Compound B2, (E/Z)-3-(6-bromopyridin-2-yl)-2-(5-((4-(2,6-dimethoxy-4-(1,4,5-trimethyl-6-oxo-1,6-dihydropyridin-3-yl)benzyl)-1,4-diazepan-1-yl)methyl)-1-methyl-1,2,3,4-tetrahydroisoquinoline-2-carbonyl)acrylonitrile] | 
15 | < 1.25 nM | 70 to 75% | > 75% | 10 to 25 nM |  |  |  | COc1cc(-c2cn(C)c(=O)c(C)c2C)cc(OC)c1CN1CCN(Cc2cccc3c2CCN(C(=O)/C(C#N)=C/c2cc(C(F)(F)F)ccn2)C3C)CC1 (mixture of isomers) [Compound B50, (E/Z)-2-(5-((4-(2,6-dimethoxy-4-(1,4,5-trimethyl-6-oxo-1,6-dihydropyridin-3-yl)benzyl)piperazin-1-yl)methyl)-1-methyl-1,2,3,4-tetrahydroisoquinoline-2-carbonyl)-3-(4-(trifluoromethyl)pyridin-2-yl)acrylonitrile] | 
16 | < 1.25 nM | > 75% | > 75% | < 1.25 nM |  |  |  | COc1cc(-c2cn(C)c(=O)c(C)c2C)cc(OC)c1CN1CCN(Cc2cccc3c2CCN(C(=O)/C(C#N)=C/C2(F)CC2)C3C)CC1 (mixture of isomers) [Compound B20, (E/Z)-2-(5-((4-(2,6-dimethoxy-4-(1,4,5-trimethyl-6-oxo-1,6-dihydropyridin-3-yl)benzyl)piperazin-1-yl)methyl)-1-methyl-1,2,3,4-tetrahydroisoquinoline-2-carbonyl)-3-(1-fluorocyclopropyl)acrylonitrile] | 
